Measurements reported in paper PMC12427763 (2025).
One block for each compound: values may come before it.

Assays:
[1] = test system: c-myb G4 (5'-FAM) (DNA, G4) GGAGGAGGAGGTCACGGAGGAGGAGGAGAAGGAGGAGGAGGA; test: MST; conditions: K+ 100 mM; 50 mM Tris-HCl pH 7.4
[2] = test system: 5'-biotin c-myb G4 (DNA, G4) GGAGGAGGAGGTCACGGAGGAGGAGGAGAAGGAGGAGGAGGA; test: SPR; conditions: K+ 100 mM; 50 mM Tris-HCl pH 7.4, 5% DMSO
[3] = test system: c-myb IM (5'-FAM) (DNA, i motif) TCCTCCTCCTCCTTCTCCTCCTCCTCCGTGACCTCCTCCTCC; test: MST; conditions: K+ 100 mM, 20 mM MES pH 5.5
[4] = test system: 5'-biotin c-myb IM (DNA, i motif) TCCTCCTCCTCCTTCTCCTCCTCCTCCGTGACCTCCTCCTCC; test: SPR; conditions: K+ 100 mM; 20 mM MES pH 5.5, 5% DMSO
[5] = test system: Kras G4 (5'-FAM) (DNA, G4) AGGGCGGTGTGGGAAGAGGGAAGAGGGGGAGG; test: MST; conditions: K+ 100 mM; 50 mM Tris-HCl pH 7.4
[6] = test system: Hras G4 (DNA, G4) TTGAGGGTGGGTAGGGTGGGTAAA; test: SPR; conditions: K+ 100 mM; 50 mM Tris-HCl pH 7.4, 5% DMSO
[7] = test system: HIF-1α IM (5'-FAM) (DNA, i motif) GCCCGAGCGCGCCTCCGCCCTTGCCCGCCCCCTG; test: MST; conditions: K+ 100 mM; 20 mM MES pH 5.5
[8] = test system: Kras IM (5'-FAM) (DNA, i motif) CCTCCCCCTCTTCCCTCTTCCCACACCGCCCT; test: MST; conditions: K+ 100 mM; 20 mM MES pH 5.5
[9] = test system: Bcl-2 IM (DNA, i motif) CAGCCCCGCTCCCGCCCCCTTCCTCCCGCGCCCGCCCCT; test: SPR; conditions: K+ 100 mM; 20 mM MES pH 5.5, 5% DMSO
[10] = test system: Ret IM (5'-FAM) (DNA, i motif) CCCCGCCCCGCCCCGCCCCTA; test: MST; conditions: K+ 100 mM; 20 mM MES pH 5.5
[11] = test system: Kras G4 (DNA, G4) AGGGCGGTGTGGGAAGAGGGAAGAGGGGGAGG; test: SPR; conditions: K+ 100 mM; 50 mM Tris-HCl pH 7.4, 5% DMSO
[12] = test system: Rb IM (5'-FAM) (DNA, i motif) GCCGCCCAAAACCCCCCG; test: MST; conditions: K+ 100 mM; 20 mM MES pH 5.5
[13] = test system: c-myb IM (DNA, i motif) TCCTCCTCCTCCTTCTCCTCCTCCTCCGTGACCTCCTCCTCC; test: TO displacement, fluorescence; conditions: K+ 100 mM plus potassium phosphate; BPES pH 5.5, 1 mM EDTA; tracer thiazole orange 2 μM
[14] = test system: c-Jun G4 (DNA, G4) AAGGGGGGAGGGGGAGGGGGTT; test: SPR; conditions: K+ 100 mM; 50 mM Tris-HCl pH 7.4, 5% DMSO
[15] = test system: Rb IM (DNA, i motif) GCCGCCCAAAACCCCCCG; test: SPR; conditions: K+ 100 mM; 20 mM MES pH 5.5, 5% DMSO
[16] = test system: Bcl-2 G4 (DNA, G4) GGGCGGGCGCGGGAGGAAGGGGGCGGG; test: SPR; conditions: K+ 100 mM; 50 mM Tris-HCl pH 7.4, 5% DMSO
[17] = test system: Ret IM (DNA, i motif) CCCCGCCCCGCCCCGCCCCTA; test: SPR; conditions: K+ 100 mM; 20 mM MES pH 5.5, 5% DMSO
[18] = test system: c-Jun IM (DNA, i motif) TAACCCCCTCCCCCTCCCCCCTTTAAT; test: SPR; conditions: K+ 100 mM; 20 mM MES pH 5.5, 5% DMSO
[19] = test system: c-myb G4 (DNA, G4) GGAGGAGGAGGTCACGGAGGAGGAGGAGAAGGAGGAGGAGGA; test: TO displacement, fluorescence; conditions: K+ 100 mM; 50 mM Tris-HCl pH 7.4; tracer thiazole orange 2 μM
[20] = test system: c-Jun IM (5'-FAM) (DNA, i motif) TAACCCCCTCCCCCTCCCCCCTTTAAT; test: MST; conditions: K+ 100 mM; 20 mM MES pH 5.5
[21] = test system: c-Jun G4 (5'-FAM) (DNA, G4) AAGGGGGGAGGGGGAGGGGGTT; test: MST; conditions: K+ 100 mM; 50 mM Tris-HCl pH 7.4

- KD [1]: 8.53 ± 3.22 µM
- KD [2]: 5.15 µM
- KD [3]: 2.11 ± 0.71 µM
- KD [4]: 3.34 µM
SMILES: O=C1c2cccc3c(-n4cc(-c5ccc6c(c5)c5ccccc5n6CCN5CCCC5)nn4)ccc(c23)C(=O)N1CCN1CCCC1

- KD [1]: 1.43 ± 0.64 µM
- KD [5]: 19.90 µM
- KD [6]: 29.10 µM
- KD [7]: 14.19 µM
- KD [8]: 20.59 µM
- KD [9]: 18.50 µM
- KD [10]: 18.00 µM
- KD [2]: 1.10 µM
- KD [3]: 1.04 ± 0.40 µM
- KD [11]: 27.50 µM
- KD [12]: 20.93 µM
- DC50 [13]: 0.8 µM
- KD [14]: 32.90 µM
- KD [15]: 7.70 µM
- KD [16]: 23.60 µM
- KD [17]: 7.71 µM
- KD [18]: 18.70 µM
- DC50 [19]: 1.0 µM
- KD [4]: 0.58 µM
- KD [20]: 34.42 µM
- KD [21]: > 50 µM
SMILES: O=C1c2cccc3cc(-c4ccc5c(c4)c4cc(-c6cn(CCN7CCCC7)nn6)ccc4n5CCN4CCCC4)cc(c23)C(=O)N1CCN1CCCC1

- KD [1]: 1.11 ± 0.52 µM
- KD [2]: 3.03 µM
- KD ([3]; supplement prints 10.39 ± 2.67): 10.06 ± 2.67 µM
- KD [4]: 12.90 µM
SMILES: O=C1c2cccc3cc(-c4ccc5c(c4)c4ccccc4n5CCN4CCCC4)cc(c23)C(=O)N1CCN1CCCC1
